Reference: article PMC8911046, “Identification of Kukoamine A, Zeaxanthin, and Clexane as New Furin Inhibitors” (International Journal of Molecular Sciences, 2022)
“And” between values parts separate entries of the source, which are not always exact repeats. Equal entries are not always repeated. Values belong to the compound of their own block, whether it stands above or below them. Residues, ends and D or L forms follow the SMILES beside them. *: point of attachment. Decanoyl = CCCCCCCCCC(=O)*; CH2Cl = ClC*

Tests used:
[1] = target: T1, furin from the U-251 MG secretome (Homo sapiens, UniProt P09958); assay: Furin inhibition assay in coadjuvants with CMK; format: biochemical; settings: CMK alone, read-out: IC50 for CMK alone, physiological furin
T1 construct: physiological furin secreted from U-251 MG cells; endogenous in cells; host or cells: U-251 MG human glioblastoma cells; conditioned medium (secretome) concentrated 10x
Experimental: (§1) The IC50 was calculated only for those compounds that inhibited recombinant and physiological furin. For each compound concentration, furin activity’s maximum velocity (mRFU/min) was recorded. Then, by using GraphPad software (v. 8), the correlation between the decimal logarithm (compound concentration) and furin activity’s maximum velocity was calculated by nonlinear regression (curve fit) for XY analyses. From this statistical method, the IC50 was calculated with a 95% confidence interval (CI).
Since furin inhibition by CMK had been tested only in physiological conditions, adjuvant inhibition assays were performed with furin from the U-251 MG secretome. Inhibition was assessed by using different concentrations of CMK (Cat.No. B5437; APExBIO) and the IC50 concentrations of selected virtual screening compounds or Clexane. In a 96-well black plate, various CMK (0–50 µM) concentrations were incubated with the IC50 concentrations of the rest of the compounds and with 10× U-251 MG secretome as described above. After 10 min incubation at room temperature, 50 µM furin specific fluorogenic substrate was added and the plate was read in a Multiskan Go plate reader at 380 and 460 nm for emission and excitation wavelengths, respectively, at 37 °C for 30 min.

[2] = target: T2, human recombinant furin (Homo sapiens, UniProt P09958); assay: Fluorogenic furin inhibition assay, recombinant furin; format: biochemical; settings: 3.6 nM human recombinant furin, 50 µM fluorogenic substrate, pH 9
T2 construct: purchased R&D Systems 1503-SE-010
Experimental: Clexane (LMWH, enoxaparin sodium, Clexane, Sanofi Aventis S.A., Barcelona, Spain) and each candidate compound selected by virtual screening were assayed as inhibitors of human recombinant furin (1503-SE-010; Lot#INK2320031; R&D Systems) and physiological furin secreted from U-251 MG cells. For both types of furin, the fluorogenic specific substrate (mentioned above) was used. […] Compounds were reconstituted in their appropriate solvents (distilled water, ethanol, PBS, etc.), according to the supplier’s instructions. In a 96-well black plate, U-251 MG secretome concentrated 10× or 3.6 nM human recombinant furin were incubated with different compound concentrations for 10 min at room temperature, and then, 50 µM furin specific fluorogenic substrate was added to every well, except one blank. Fluorescence was recorded in the Multiskan Go plate reader at 380 and 460 nm for emission and excitation wavelengths, respectively, at 37 °C for 30 min.
as §1, with “From this statistical method, the IC50 was calculated with a 95% confidence interval (CI).” left out

[3] = test system: 293T HEK cell line; assay: Cell viability by 7-AAD flow cytometry; format: cell-based; settings: for Alive (%) / Dead (%): 293T HEK; for percentage of live cells: half of the IC50 for physiological furin, no compound 94.25% ± 3.18%
Experimental: New furin inhibitors identified by virtual screening were tested in cell viability assays. The 293T HEK cell line (human embryonic kidney cell line purchased from American Type Culture Collection) was used as healthy cell model. They were cultured in DMEM containing 4,5 g/L glucose, supplemented with 10% fetal bovine serum, 1% GlutaMax, and 0,1% gentamicin. They were maintained in Corning® T-75 flasks (catalog #430641; ThermoFisher Scientific, Waltham, MA, USA) at 37 °C and 5% carbon dioxide. At 100% cellular confluence, cells were subcultured in 12-well plates (flat bottom, sterile, NUNC brand, Biolab, Madrid, Spain) at 100,000 cells/mL for 24 h. Then, different concentrations (double, half, and full IC50 concentrations for physiological furin) of furin inhibitors were added to cells for 24 h, and cells were collected afterward. The experiment was run in duplicates. Then, the cell pellet was resuspended in running buffer (autoMACS ® Running Buffer–MACS Separation Buffer; order no.:130-091-221; Miltenyi Biotec, Madrid, Spain) and 7-AAD (Cat: 51-68981E; BD Biosciences, Madrid, Spain). Finally, this solution was evaluated in a flow cytometer (BD Accuri™ C6 Plus Flow Cytometer; BD Biosciences, Madrid, Spain) to calculate mortality rates. A blank solution with cell pellet resuspended in running buffer was used to discard cell autofluorescence. The results were analyzed in FlowJo software (v. 10).

[4] = design: method as in PMID 27241194, PMID 28254666; settings: rats or mice, doses between 5 and 20 mg/kg; cited from earlier work
[5] = 2xIC50, single replicates of duplicate
[6] = IC50, single replicates of duplicate
[7] = IC50/2, single replicates of duplicate
[8] = 293T cells, double IC50 concentration, 24 h

T2 sequence (P09958 108-794): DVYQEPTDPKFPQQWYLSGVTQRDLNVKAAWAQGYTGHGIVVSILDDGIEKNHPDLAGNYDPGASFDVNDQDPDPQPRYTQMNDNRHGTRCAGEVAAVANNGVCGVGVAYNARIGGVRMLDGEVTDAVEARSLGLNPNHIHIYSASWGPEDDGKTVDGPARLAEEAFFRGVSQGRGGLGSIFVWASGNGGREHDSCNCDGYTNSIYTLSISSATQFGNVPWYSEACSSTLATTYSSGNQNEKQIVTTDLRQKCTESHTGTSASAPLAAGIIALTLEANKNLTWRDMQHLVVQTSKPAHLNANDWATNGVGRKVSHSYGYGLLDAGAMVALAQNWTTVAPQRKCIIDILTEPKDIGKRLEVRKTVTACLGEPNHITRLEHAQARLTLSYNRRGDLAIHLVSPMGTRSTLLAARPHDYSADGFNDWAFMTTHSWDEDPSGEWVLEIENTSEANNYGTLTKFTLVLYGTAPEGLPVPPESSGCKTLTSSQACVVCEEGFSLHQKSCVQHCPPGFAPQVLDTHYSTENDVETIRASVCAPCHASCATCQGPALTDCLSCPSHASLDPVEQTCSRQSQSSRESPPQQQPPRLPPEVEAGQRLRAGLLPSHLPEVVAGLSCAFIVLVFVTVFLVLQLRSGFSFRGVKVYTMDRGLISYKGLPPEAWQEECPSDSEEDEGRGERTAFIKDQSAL
T1 sequence (P09958 108-715 limits assumed): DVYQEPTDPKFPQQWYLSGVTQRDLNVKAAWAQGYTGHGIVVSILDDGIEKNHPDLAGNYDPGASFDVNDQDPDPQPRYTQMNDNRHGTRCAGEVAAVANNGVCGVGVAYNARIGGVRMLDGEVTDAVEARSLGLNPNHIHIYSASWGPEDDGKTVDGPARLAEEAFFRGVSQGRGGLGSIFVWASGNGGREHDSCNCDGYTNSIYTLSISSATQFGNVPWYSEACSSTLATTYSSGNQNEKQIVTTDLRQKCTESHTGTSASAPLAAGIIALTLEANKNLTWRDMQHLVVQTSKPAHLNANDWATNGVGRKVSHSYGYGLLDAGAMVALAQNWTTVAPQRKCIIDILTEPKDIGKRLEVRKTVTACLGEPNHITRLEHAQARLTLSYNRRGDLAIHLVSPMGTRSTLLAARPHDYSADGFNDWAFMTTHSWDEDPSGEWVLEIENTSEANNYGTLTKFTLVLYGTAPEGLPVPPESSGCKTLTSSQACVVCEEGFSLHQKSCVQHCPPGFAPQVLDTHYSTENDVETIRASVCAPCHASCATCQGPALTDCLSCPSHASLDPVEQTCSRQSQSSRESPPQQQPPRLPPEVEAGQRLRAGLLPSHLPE

- IC50 [1]: 4.2 µM
SMILES: CCCCCCCCCC(=O)N[C@@H](CCCNC(=N)N)C(=O)N[C@H](C(=O)N[C@@H](CCCCN)C(=O)N[C@@H](CCCNC(=N)N)C(=O)CCl)C(C)C [CMK, Decanoyl-Arg-Val-Lys-Arg-chloromethylketone] (Decanoyl-RVKR-CH2Cl)

SMILES: O=C(CCc1ccc(O)c(O)c1)NCCCNCCCCNCCCNC(=O)CCc1ccc(O)c(O)c1 [Kukoamine A]
- IC50 [2]: 1070 µM
- Alive (%) [3, 5]: 6.25% and 5.88%
- Dead (%) [3, 5]: 94.1% and 93.8%
- Alive (%) [3, 6]: 8.33% and 0%
- Dead (%) [3, 6]: 91.7% and 100%
- Alive (%) [3, 7]: 89.8% and 85.3%
- Dead (%) [3, 7]: 10.2% and 14.7%
- effect on cell viability [3, 8]: significantly reduced
- effect on cell viability ([3]; 293T cells, full IC50 concentration, 24 h): significantly reduced
- percentage of live cells ([3]; 293T cells, 24 h): 87.55% ± 1.48%
- adverse effects [4]: no significant reported adverse effects

SMILES: CC1=C(/C=C/C(C)=C/C=C/C(C)=C/C=C/C=C(C)/C=C/C=C(C)/C=C/C2=C(C)C[C@@H](O)CC2(C)C)C(C)(C)C[C@H](O)C1 [Zeaxanthin]
- IC50 [2]: 90.5 µM
- Alive (%) [3, 5]: 1.10% and 15.7%
- Dead (%) [3, 5]: 84.3% and 98.9%
- Alive (%) [3, 6]: 32.8% and 33.9%
- Dead (%) [3, 6]: 67.2% and 66.1%
- Alive (%) [3, 7]: 78.2% and 84.0%
- Dead (%) [3, 7]: 21.8% and 16.0%
- reduction of cell viability ([3]; 293T cells, IC50 concentration, 24 h): 61%
- effect on cell viability [3, 8]: nearly total death
- percentage of live cells ([3]; 293T cells, 24 h): 81.1% ± 4.1%
